{"source": "paper PMC11013252", "about": "“Exploration of the Antibacterial and Anti-Inflammatory Activity of a Novel Antimicrobial Peptide Brevinin-1BW” (Molecules, 2024)", "key": {"[1]": {"system": "S. aureus (ATCC 25923)", "format": "cell-based, Staphylococcus aureus", "details": "ATCC 25923, 1 h", "procedure": "The temperature, serum, and pH stability of antimicrobial peptide Brevinin-1BW was investigated. S. aureus (ATCC 25923) was used to determine its stability. The antimicrobial peptide solution was prepared and placed at −20 °C, 4 °C, 37 °C, 60 °C, and 100 °C for 1 h. The MIC was measured with 96-well plate method to detect the effect of temperature. […] The pH stability was achieved by inoculating S. aureus into MH medium and culturing them with shaking to reach the logarithmic growth phase. This was then diluted to 10^6 CFU/mL. Brevinin-1BW was incubated in PBS at various pH values, pH = 2 or 12, for 1 h at 37 °C. The minimal inhibitory concentrations (MIC) of the peptides were then determined. All the above experiments were repeated more than three times."}, "[2]": {"system": "RAW264.7", "format": "cell-based, mouse", "details": "24 h", "procedure": "Medium was prepared to contain 10% FBS (TransGen Biotech, China) and 1% penicillin-streptomycin (Biosharp, Guangzhou, China). A549, U-2OS, HePG2, HaCaT, HUVEC, and 293T cells were cultured in DMEM medium (Gibco, New York, NY, USA). A375, HCT116, Hela, and RAW264.7 cells were cultured in RPMI 1640 medium (Gibco, New York, NY, USA). The cytotoxicity of Brevinin-1BW was determined using the Cell Counting Kit-8 as follows: detached the cells from cell culture flasks with 0.25% trypsin, counted with a hemocytometer plate and then prepared into a cell suspension containing 5 × 10^3 cells/mL. Then, 90 μL of the cell suspension was inoculated into a 96-well plate and incubated at 37 °C in a 5% CO2-humidified atmosphere for 24 h. A 10 μL volume of the peptide was subsequently added to each well and co-incubated with the cells for 24 h. Then, 10 μL of CCK8 (Abbkine, Wuhan, China) was added to each well and incubated for a further 2 h. The absorbance of each well at 450 nm was measured using a multifunctional enzyme marker. […] Three replicate wells were set up for each experiment, and each experiment was repeated three times. The formula for calculating the cell viability is shown below."}, "[3]": {"system": "E. faecalis (ATCC29212)", "experiment": "microbe, parasite or virus in culture", "format": "cell-based, Enterococcus faecalis", "details": "ATCC29212, 18 h", "procedure": "(§1) The minimum inhibitory concentration (MIC) of the Brevinin-1BW was measured in 96-well microtiter plates according to the Clinical and Laboratory Standards Institute (CLSI). The activated strains were treated with Mueller Hinton Agar (MHA) solid medium. Single colonies were picked and expanded to the logarithmic growth phase, and the solution was diluted to 2 × 10^6 CFU/mL using the McFarland turbidity standard. The MIC was determined with the two-fold dilution method. Briefly, 50 μL of Mueller Hinton (MH) medium was added to a 96-well plate in advance. Then, 50 μL of AMP solution was added to the first well, and 50 μL was pipetted into the next well after mixing using a row gun, while 50 μL was discarded from the last well. Final concentrations of Brevinin-1BW were 100, 50, 25, 12.5, 6.25, and 3.125 μg/mL. A 50 μL volume of the diluted bacterial solution was added, and the final concentration of the bacterial solution was 1 × 10^6 CFU/mL. This was then placed into a 37 °C incubator for 18 h until the next day to observe the degree of turbidity of the 96-well plate and measure the absorbance of the wells at 600 nm with a multifunctional microplate reader (SpectraMax iD5, Molecular Devices, Sunnyvale, CA, USA). The absence of turbidity and the measured concentration of absorbance being less than the opposing group was taken as the MIC. The positive control used ampicillin at the same final concentration as Brevinin-1BW, the negative control used 50 μL of MH medium mixed with 50 μL of 2 × 10^6 CFU/mL bacterial solution, and the blank contained only 100 μL of MH medium. Three replicate wells were set up for each experiment, and each experiment was repeated three times. The MIC and all concentrations above the MIC of bacterial solution coated on MHA solid medium were placed into 37 °C incubator incubation for 18 h. The lowest concentration resulting in no colony growth was taken as the minimum bactericidal concentration (MBC)."}, "[4]": {"system": "S. epidermidis (CI 1607BL1D39)", "experiment": "microbe, parasite or virus in culture", "format": "cell-based, Staphylococcus epidermidis", "details": "CI 1607BL1D39, 18 h", "procedure": "as §1"}, "[5]": {"system": "C. koseri (CI 1611SED223)", "experiment": "microbe, parasite or virus in culture", "format": "cell-based, Citrobacter koseri", "details": "18 h", "procedure": "as §1"}, "[6]": {"system": "S. aureus (ATCC 25923) biofilm formation", "format": "cell-based, Staphylococcus aureus", "details": "ATCC 25923, 24 h", "procedure": "The plates were washed three times with sterile PBS and fixed with methanol for 0.5 h. After drying, the cells were stained with 1% crystal violet solution for 0.5 h. They were washed three times with deionized water and dissolved in 100 µL absolute ethanol. Absorbance was measured at 600 nm. Experiments were repeated four times independently."}}, "note": "Like-named read-outs stand apart in the source and are kept apart here. Positions of bridges follow the written chain, without caps; N, C: chain ends. Residues, ends and D or L forms follow the SMILES beside them."}
{"compound": "CC[C@H](C)[C@@H]1NC(=O)[C@H](CCCCN)NC(=O)[C@@H](NC(=O)[C@H](Cc2ccccc2)NC(=O)[C@@H](NC(=O)[C@@H](NC(=O)[C@@H]2CCCN2C(=O)[C@H](CC(C)C)NC(=O)[C@H](Cc2ccccc2)NC(=O)[C@H](CO)NC(=O)[C@H](C)NC(=O)[C@H](C)NC(=O)[C@H](CC(C)C)NC(=O)CNC(=O)[C@H](C)NC(=O)[C@H](CC(C)C)NC(=O)[C@H](CC(C)C)NC(=O)[C@@H]2CCCN2C(=O)[C@H](CC(C)C)NC(=O)[C@@H](N)Cc2ccccc2)[C@@H](C)O)[C@@H](C)CC)CSSC[C@@H](C(=O)O)NC(=O)[C@H](CCCCN)NC(=O)[C@H](CCCNC(=N)N)NC(=O)[C@H](CO)NC1=O", "note": "[Brevinin-1BW] (H-FLPLLAGLAASFLPTIFCKISRKC-OH; disulfide 18-24)", "values": [{"measurement": "MIC after temperature treatment", "setting": "[1]", "value": 6.25, "unit": "µg/mL"}, {"measurement": "MIC after pH treatment", "setting": "[1]; pH 2", "value": 6.25, "unit": "µg/mL"}, {"measurement": "MIC after pH treatment", "setting": "[1]; pH 12", "value": 6.25, "unit": "µg/mL"}, {"measurement": "CC50", "setting": "[2]", "value": "32.33 ± 0.47", "unit": "µg/mL"}, {"measurement": "MBC", "setting": "[3]", "value": 12.5, "unit": "µg/mL"}, {"measurement": "MIC", "setting": "[3]", "value": 3.125, "unit": "µg/mL"}, {"measurement": "MBC", "setting": "[4]", "value": 25, "unit": "µg/mL"}, {"measurement": "MIC", "setting": "[4]", "value": 12.5, "unit": "µg/mL"}, {"measurement": "MBC", "setting": "[5]", "value": ">100", "unit": "µg/mL"}, {"measurement": "MIC", "setting": "[5]", "value": 50, "unit": "µg/mL"}, {"measurement": "inhibition of biofilm formation", "setting": "[6]; 0.5", "value": 35.76, "unit": "%"}, {"measurement": "inhibition of biofilm formation", "setting": "[6]; 2", "value": 83.67, "unit": "%"}]}
